In US20050175762A1, “Methods and compositions to inhibit lipid oxidation” (priority 2003, published 2005):

How the values were obtained:
[1] = DPPH radical scavenging by spectrophotometry; assay type: biochemical; conditions: 30 min at 22 to 24° C., 515 nm, concentrations as quercetin equivalent, read-out: SC50 (concentration required to obtain 50% of a maximum scavenging capacity)
Procedure: After a 30 min incubation at 22 to 24° C., the resultant absorbance was recorded at 515 nm by a double-beam spectrophotometer model UV-2401 (Shimadzu Scientific Instruments Inc., Columbia, Md.). Ascorbate, propyl gallate, and quercetin were used as reference standard. The scavenging capacity%=[1-((Abs of cranberry crude extract/fractions-Abs of blank)/Abs control)]*100. […] Plant Sci. 2002, 163, 1161-1168). The cranberry crude extract/fractions were evaluated and compared with ascorbic acid, propyl gallate and quercetin for the free radical scavenging activity toward stable DPPH radicals. […] Specifically, in referring to FIG. 21, the final concentration of DPPH radical was […].

[2] = test system: trout hemoglobin-mediated lipid oxidation in washed cod muscle; assay: Hemoglobin-mediated lipid oxidation in washed cod muscle (TBARS); conditions: for Effect on lipid oxidation in washed cod muscle: hemoglobin-mediated, 2° C. storage, FIG. 22 and 23; for Inhibition in TBARS formation: washed cod muscle
Procedure: Furthermore, cod muscle and trout hemoglobin were prepared according to the method described by Richards et al., Role of deoxyhemoglobin in lipid oxidation of washed cod muscle mediated by trout, poultry and beef hemoglobins. Meat Sci. 2002, 62, 157-163. The hemoglobin-mediated lipid oxidation system consisted of washed cod muscle, cranberry crude extract/fractions, streptomycin sulfate, and trout hemoglobin. The final concentration of hemoglobin and cranberry extract/fractions was 12 and 37/74 μmol per kg washed cod muscle, respectively. A control sample containing no cranberry crude extract/fractions was also prepared. The final moisture content of washed cod muscle was adjusted to 90%. pH was adjusted to between 6.10 and 6.30 by 1 M NaOH or HCl. All samples were stored at 2° C. for 7 to 9 days.
The progress of lipid oxidation in washed cod muscle was followed by periodically removing samples and quantifying TBARS formed by a modified method of Buege and Aust Microsomal lipid peroxidation. Method. Enzymol. 1978, LII, 302-310 as described by Richards et al., Role of deoxyhemoglobin in lipid oxidation of washed cod muscle mediated by trout, poultry and beef hemoglobins. Meat Sci. 2002, 62, 157-163. Lag time (LT) is defined as extension in stability compared to control sample which was stable for around 1 day. All trials in this study were conducted in duplicate or triplicate and in each trial triplicate determinations were performed

[3] = test system: salmon oil-in water emulsion; assay: Lipid oxidation in salmon oil-in water emulsion; conditions: 400 ppm, 10% salmon oil, 0.5% tween 20, pH 3.0, 27° C.
Procedure: Similarly, applicants have tested cranberry fractions in various emulsion systems (FIGS. 7-0). More specifically, FIG. 7, illustrates the effect of quercetin on lipid oxidation in salmon oil-in water emulsion. […] The emulsion consisted of 10% (w/w) salmon oil, 0.5% (w/w) tween 20 and 10 mM pH 3.0 acetate-imidazole buffer. Quercetin was added into the emulsion samples at the level of 400 ppm. The emulsion samples were oxidized in a shaker oven at 27° C. Likewise, FIG. 8, also illustrates the effect of cranberry fractions on lipid oxidation in salmon oil-in water emulsion. However, cranberry fractions and quercetin were added into the emulsion samples at the level of 400 ppm. Also, FIGS. 9 and 10 illustrate the effect of cranberry fractions on lipid oxidation in salmon oil-in water emulsion. However, 10% salmon oil was used in both fraction 4 and control treated samples, whereas 9.2% oil was used in the fraction 2 treated sample.

[4] = test system: mechanically separated turkey (MST); assay: Lipid oxidation (TBARS) in mechanically separated turkey during iced storage

Row | Structure (SMILES) | EC50 [1] [µM] | Effect on lipid oxidation in washed cod muscle [2] | Effect on lipid oxidation in emulsion systems [3] | Inhibition on lipid oxidation of MST ([4]; 210 umol quercetin/kg MST, 2° C. storage) | Inhibition of lipid oxidation in MST ([4]; quercetin at 50 umol/kg, precipitate added on a quercetin equivalent basis (FIG. 5)) | Inhibition in TBARS formation ([2]; 37 μmol quercetin per kg) [%] | Inhibition in TBARS formation ([2]; 74 mmole quercetin equivalent)
1 | O=C1O[C@H]([C@@H](O)CO)C(O)=C1O [ascorbic acid] | 12.2 |  |  |  |  |  | 
2 | CCCOC(=O)c1cc(O)c(O)c(O)c1 [propyl gallate] | 5.07 | stable throughout the entire storage period |  |  |  |  | 
3 | O=c1c(O)c(-c2ccc(O)c(O)c2)oc2cc(O)cc(O)c12 [quercetin] | 4.89 | as effective as 37 mmole propyl gallate | In 2 of 3 trials, quercetin was inhibitory | Effective inhibition | highly effective | 83 | Up to 94%
